Measurements reported in patent publication US8802661B2, “C-28 amides of modified C-3 betulinic acid derivatives as HIV maturation inhibitors” (priority 2010, dated 2014).
Where two headings read alike, the source gives them in different places.

System: recombinant NL4-3 virus (Renilla luciferase in nef, Gag P373S)
Assay: HIV Cell Culture Assay (luciferase reporter virus in MT-2 cells)
Type: cell-based
Method in brief: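 Inhibitor potency against the reporter virus comes from reduced luciferase activity in infected MT-2 cells exposed to a dilution series of compound over 4-5 days.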

Row | Compound | EC50 (NL43, read-out: EC50 Group) [nM] | EC50 (NL43) [nM]
1 | C=C(C)[C@@H]1CC[C@]2(C(=O)NCCN(C)C(C)=O)CC[C@]3(C)[C@H](CC[C@@H]4[C@@]5(C)CC=C(c6ccc(C(=O)O)cc6)C(C)(C)[C@@H]5CC[C@]43C)[C@@H]12 [Example 75, 4-((1R,3aS,5aR,5bR,7aR,11aS,11bR,13aR,13bR)-5a,5b,8,8,11a-pentamethyl-3a-(2-(N-methylacetamido)ethylcarbamoyl)-1-(prop-1-en-2-yl)-2,3,3a,4,5,5a,5b,6,7,7a,8,11,11a,11b,12,13,13a,13b-octadecahydro-1H-cyclopenta[a]chrysen-9-yl)benzoic acid] | < 100 | 
2 | C=C(C)[C@@H]1CC[C@]2(C(=O)NCCN(CCO)CCO)CC[C@]3(C)[C@H](CC[C@@H]4[C@@]5(C)CC=C(c6ccc(C(=O)O)cc6)C(C)(C)[C@@H]5CC[C@]43C)[C@@H]12 [Example 76, 4-((1R,3aS,5aR,5bR,7aR,11aS,11bR,13aR,13bR)-3a-(2-(bis(2-hydroxyethyl)amino)ethylcarbamoyl)-5a,5b,8,8,11a-pentamethyl-1-(prop-1-en-2-yl)-2,3,3a,4,5,5a,5b,6,7,7a,8,11,11a,11b,12,13,13a,13b-octadecahydro-1H-cyclopenta[a]chrysen-9-yl)benzoic acid] | < 100 | 
3 | C=C(C)[C@@H]1CC[C@]2(C(=O)N(CCO)CCN(C)C)CC[C@]3(C)[C@H](CC[C@@H]4[C@@]5(C)CC=C(c6ccc(C(=O)O)cc6)C(C)(C)[C@@H]5CC[C@]43C)[C@@H]12 [Example 77, 4-((1R,3aS,5aR,5bR,7aR,11aS,11bR,13aR,13bR)-3a-((2-(dimethylamino)ethyl)(2-hydroxyethyl)carbamoyl)-5a,5b,8,8,11a-pentamethyl-1-(prop-1-en-2-yl)-2,3,3a,4,5,5a,5b,6,7,7a,8,11,11a,11b,12,13,13a,13b-octadecahydro-1H-cyclopenta[a]chrysen-9-yl)benzoic acid] | > 100 | 
4 | CC(C)[C@@H]1CC[C@]2(C(=O)NCCN(C)C)CC[C@]3(C)[C@H](CC[C@@H]4[C@@]5(C)CC=C(c6ccc(C(=O)O)cc6)C(C)(C)[C@@H]5CC[C@]43C)[C@@H]12 [Example 78, 4-((1S,3aS,5aR,5bR,7aR,11aS,11bR,13aR,13bR)-3a-(2-(dimethylamino)ethylcarbamoyl)-1-isopropyl-5a,5b,8,8,11a-pentamethyl-2,3,3a,4,5,5a,5b,6,7,7a,8,11,11a,11b,12,13,13a,13b-octadecahydro-1H-cyclopenta[a]chrysen-9-yl)benzoic acid] | < 100 | 
5 | C=C(C)[C@@H]1CC[C@]2(C(=O)NCC(O)C(=O)O)CC[C@]3(C)[C@H](CC[C@@H]4[C@@]5(C)CC=C(c6ccc(C(=O)O)cc6)C(C)(C)[C@@H]5CC[C@]43C)[C@@H]12 (stereo partly drawn) [Example 79, 4-((1R,3aS,5aR,5bR,7aR,11aS,11bR,13aR,13bR)-3a-(2-carboxy-2-hydroxyethylcarbamoyl)-5a,5b,8,8,11a-pentamethyl-1-(prop-1-en-2-yl)-2,3,3a,4,5,5a,5b,6,7,7a,8,11,11a,11b,12,13,13a,13b-octadecahydro-1H-cyclopenta[a]chrysen-9-yl)benzoic acid] | < 100 | 
6 | C=C(C)[C@@H]1CC[C@]2(C(=O)NCCN(C)CC(=O)O)CC[C@]3(C)[C@H](CC[C@@H]4[C@@]5(C)CC=C(c6ccc(C(=O)O)cc6)C(C)(C)[C@@H]5CC[C@]43C)[C@@H]12 [Example 80, 4-((1R,3aS,5aR,5bR,7aR,11aS,11bR,13aR,13bR)-3a-(2-((carboxymethyl)(methyl)amino)ethylcarbamoyl)-5a,5b,8,8,11a-pentamethyl-1-(prop-1-en-2-yl)-2,3,3a,4,5,5a,5b,6,7,7a,8,11,11a,11b,12,13, 13a,13b-octadecahydro-1H-cyclopenta[a]chrysen-9-yl)benzoic acid] | < 100 | 
7 | C=C(C)[C@@H]1CC[C@]2(C(=O)NCCNCC(=O)O)CC[C@]3(C)[C@H](CC[C@@H]4[C@@]5(C)CC=C(c6ccc(C(=O)O)cc6)C(C)(C)[C@@H]5CC[C@]43C)[C@@H]12 [Example 81, 4-((1R,3aS,5aR,5bR,7aR,11aS,11bR,13aR,13bR)-3a-(2-(carboxymethylamino)ethylcarbamoyl)-5a,5b,8,8,11a-pentamethyl-1-(prop-1-en-2-yl)-2,3,3a,4,5,5a,5b,6,7,7a,8,11,11a,11b,12,13,13a,13b-octadecahydro-1H-cyclopenta[a]chrysen-9-yl)benzoic acid] | < 100 | 
8 | C=C(C)[C@@H]1CC[C@]2(C(=O)NCCS(=O)(=O)O)CC[C@]3(C)[C@H](CC[C@@H]4[C@@]5(C)CC=C(c6ccc(C(=O)O)cc6)C(C)(C)[C@@H]5CC[C@]43C)[C@@H]12 [Example 82, sodium 4-((1R,3aS,5aR,5bR,7aR,11aS,11bR,13aR,13bR)-5a,5b,8,8,11a-pentamethyl-1-(prop-1-en-2-yl)-3a-(2-sulfonatoethylcarbamoyl)-2,3,3a,4,5,5a,5b,6,7,7a,8,11,11a,11b,12,13,13a,13b-octadecahydro-1H-cyclopenta[a]chrysen-9-yl)benzoate] |  | 1230
9 | C=C(C)[C@@H]1CC[C@]2(C(=O)NCCN(CC)CC(=O)O)CC[C@]3(C)[C@H](CC[C@@H]4[C@@]5(C)CC=C(c6ccc(C(=O)O)cc6)C(C)(C)[C@@H]5CC[C@]43C)[C@@H]12 [Example 83, 4-((1R,3aS,5aR,5bR,7aR,11aS,11bR,13aR,13bR)-3a-(2-((carboxymethyl)(ethyl)amino)ethylcarbamoyl)-5a,5b,8,8,11a-pentamethyl-1-(prop-1-en-2-yl)-2,3,3a,4,5,5a,5b,6,7,7a,8,11,11a,11b,12,13,13a,13b-octadecahydro-1H-cyclopenta[a]chrysen-9-yl)benzoic acid] | < 100 | 
10 | C=CNC(=O)[C@]12CC[C@@H](C(=C)C)[C@@H]1[C@H]1CC[C@@H]3[C@@]4(C)CC=C(c5ccc(C(=O)O)cc5)C(C)(C)[C@@H]4CC[C@@]3(C)[C@]1(C)CC2 [Example 84, 4-((1R,3aS,5aR,5bR,7aR,11aS,11bR,13aR,13bR)-5a,5b,8,8,11a-pentamethyl-1-(prop-1-en-2-yl)-3a-(vinylcarbamoyl)-2,3,3a,4,5,5a,5b,6,7,7a,8,11,11a,11b,12,13,13a,13b-octadecahydro-1H-cyclopenta[a]chrysen-9-yl)benzoic acid] | < 100 | 
11 | C=C(C)[C@@H]1CC[C@]2(C(=O)NCCCN3CCS(=O)(=O)CC3)CC[C@]3(C)[C@H](CC[C@@H]4[C@@]5(C)CC=C(c6ccc(C(=O)O)cc6)C(C)(C)[C@@H]5CC[C@]43C)[C@@H]12 [Example 85, 4-((1R,3aS,5aR,5bR,7aR,11aS,11bR,13aR,13bR)-3a-((3-(1,1-dioxido-4-thiomorpholinyl)propyl)carbamoyl)-1-isopropenyl-5a,5b,8,8,11a-pentamethyl-2,3,3a,4,5,5a,5b,6,7,7a,8,11,11a,11b,12,13,13a,13b-octadecahydro-1H-cyclopenta[a]chrysen-9-yl)benzoic acid] | < 100 | 
12 | C=C(C)[C@@H]1CC[C@]2(C(=O)NCCCn3ccnc3)CC[C@]3(C)[C@H](CC[C@@H]4[C@@]5(C)CC=C(c6ccc(C(=O)O)cc6)C(C)(C)[C@@H]5CC[C@]43C)[C@@H]12 [Example 86, 4-((1R,3aS,5aR,5bR,7aR,11aS,11bR,13aR,13bR)-3a-(3-(1H-imidazol-1-yl)propylcarbamoyl)-5a,5b,8,8,11a-pentamethyl-1-(prop-1-en-2-yl)-2,3,3a,4,5,5a,5b,6,7,7a,8,11,11a,11b,12,13,13a,13b-octadecahydro-1H-cyclopenta[a]chrysen-9-yl)benzoic acid] | < 100 | 
13 | C=C(C)[C@@H]1CC[C@]2(C(=O)NCCCN3CCCC3=O)CC[C@]3(C)[C@H](CC[C@@H]4[C@@]5(C)CC=C(c6ccc(C(=O)O)cc6)C(C)(C)[C@@H]5CC[C@]43C)[C@@H]12 [Example 87, 4-((1R,3aS,5aR,5bR,7aR,11aS,11bR,13aR,13bR)-5a,5b,8,8,11a-pentamethyl-3a-(3-(2-oxopyrrolidin-1-yl)propylcarbamoyl)-1-(prop-1-en-2-yl)-2,3,3a,4,5,5a,5b,6,7,7a,8,11,11a,11b,12,13,13a,13b-octadecahydro-1H-cyclopenta[a]chrysen-9-yl)benzoic acid] | < 100 | 
14 | C=C(C)[C@@H]1CC[C@]2(C(=O)NCCN(CC(=O)O)CC(=O)O)CC[C@]3(C)[C@H](CC[C@@H]4[C@@]5(C)CC=C(c6ccc(C(=O)O)cc6)C(C)(C)[C@@H]5CC[C@]43C)[C@@H]12 [Example 88, 2,2′-(2-((1R,3aS,5aR,5bR,7aR,11aS,11bR,13aR,13bR)-9-(4-carboxyphenyl)-5a,5b,8,8,11a-pentamethyl-1-(prop-1-en-2-yl)-2,3,3a,4,5,5a,5b,6,7,7a,8,11,11a,11b,12,13,13a,13b-octadecahydro-1H-cyclopenta[a]chrysene-3a-carboxamido)ethylazanediyl)diacetic acid] | > 100 | 
15 | C=C(C)[C@@H]1CC[C@]2(C(=O)NCCN(CC)CCC(=O)O)CC[C@]3(C)[C@H](CC[C@@H]4[C@@]5(C)CC=C(c6ccc(C(=O)O)cc6)C(C)(C)[C@@H]5CC[C@]43C)[C@@H]12 [Example 89, 4-((1R,3aS,5aR,5bR,7aR,11aS,11bR,13aR,13bR)-3a-(2-((2-carboxyethyl)(ethyl)amino)ethylcarbamoyl)-5a,5b,8,8,11a-pentamethyl-1-(prop-1-en-2-yl)-2,3,3a,4,5,5a,5b,6,7,7a,8,11,11a,11b,12,13,13a,13b-octadecahydro-1H-cyclopenta[a]chrysen-9-yl)benzoic acid] | < 100 | 
16 | C=C(C)[C@@H]1CC[C@]2(C(=O)NCCN(CCC(=O)O)CCC(=O)O)CC[C@]3(C)[C@H](CC[C@@H]4[C@@]5(C)CC=C(c6ccc(C(=O)O)cc6)C(C)(C)[C@@H]5CC[C@]43C)[C@@H]12 [Example 90, 3,3′-(2-((1R,3aS,5aR,5bR,7aR,11aS,11bR,13aR,13bR)-9-(4-carboxyphenyl)-5a,5b,8,8,11a-pentamethyl-1-(prop-1-en-2-yl)-2,3,3a,4,5,5a,5b,6,7,7a,8,11,11a,11b,12,13,13a,13b-octadecahydro-1H-cyclopenta[a]chrysene-3a-carboxamido)ethylazanediyl)dipropanoic acid] | > 100 | 
